# Test results published in US10294202B2, “Pyrrolidinones as herbicides” (FMC Corporation, priority 2013, dated 2019).
# Key:
# oilseed rape = assay: Test C pre-/postemergence herbicide test; assay type: in vivo, Brassica napus
# Summary of the method: (§1)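 Compound solutions contained surfactant in a non-phytotoxic solvent. These were sprayed onto pots of loam/sand sown with seeds, and onto young plants (2 to 18 cm, 1- to 4-leaf) in sphagnum peat–vermiculite mix. Visual injury scores (0 none, 100 complete control) were recorded after 13 to 15 days.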
# galium = assay: Test C pre-/postemergence herbicide test; assay type: in vivo, Galium aparine; settings: Preemergence; for Plant response rating, Galium: 125 g ai/ha, scale 0 to 100; for Plant response rating (scale of 0 to 100), Galium: 250 g ai/ha
# Summary of the method: as §1
# ragweed = assay: Test C pre-/postemergence herbicide test; assay type: in vivo, Ambrosia elatior
# Summary of the method: as §1
# wheat = assay: Test A pre-/postemergence herbicide test; assay type: in vivo, Triticum aestivum; settings: Postemergence
# Summary of the method: (§2)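 Formulated compound (non-phytotoxic solvent, surfactant) sprayed pre- onto soil of seeded loam/sand pots or post- onto seedlings at 1–2 leaves; ~10 d greenhouse; 0–100 visual control rating versus untreated.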
# corn [1] = assay: Test C pre-/postemergence herbicide test; assay type: in vivo, Zea mays
# Summary of the method: as §1
# blackgrass = assay: Test C pre-/postemergence herbicide test; assay type: in vivo, Alopecurus myosuroides
# Summary of the method: as §1
# giant foxtail = assay: Test A pre-/postemergence herbicide test; assay type: in vivo, Setaria faberii
# Summary of the method: as §2
# corn [2] = assay: Test A pre-/postemergence herbicide test; assay type: in vivo, Zea mays; settings: Postemergence
# Summary of the method: as §2
# johnsongrass = assay: Test C pre-/postemergence herbicide test; assay type: in vivo, Sorghum halepense
# Summary of the method: as §1
# sedge, umbrella = assay: Test B flooded paddy test; assay type: in vivo, Cyperus difformis; settings: 500 g ai/ha, Flood; scale of 0 to 100 where 0 is no effect and 100 is complete control
# Summary of the method: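 Plants were grown to the 2-leaf stage, then pots were flooded to 3 cm above the soil and compound was applied directly into the paddy water, with that depth held throughout. After 13 to 15 days in a greenhouse, injury was rated visually against untreated controls on a 0 to 100 scale (100 = complete control).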
# foxtail, giant = assay: Test C pre-/postemergence herbicide test; assay type: in vivo, Setaria faberii
# Summary of the method: as §1
# [3] = Preemergence, 31 g ai/ha, scale 0 to 100, 0 is no effect and 100 is complete control
# [4] = Preemergence, 62 g ai/ha, scale 0 to 100 (0 no effect, 100 complete control)
# [5] = Preemergence, 125 g ai/ha, scale 0 to 100
# [6] = 31 g ai/ha, scale 0 to 100, 0 is no effect and 100 is complete control
# [7] = 62 g ai/ha, scale 0 to 100 (0 no effect, 100 complete control)
# [8] = 125 g ai/ha, visual rating on 0 to 100 scale (0 no effect, 100 complete control), approx. 10 days
# [9] = 500 g ai/ha, 0 to 100 scale (0 no effect, 100 complete control)
# [10] = Postemergence, 125 g ai/ha, visual rating on 0 to 100 scale (0 no effect, 100 complete control), approx. 10 days
# [11] = Postemergence, 500 g ai/ha, 0 to 100 scale (0 no effect, 100 complete control)
# [12] = Preemergence, 125 g ai/ha, 0 to 100 scale where 0 is no effect and 100 is complete control
# [13] = Preemergence, 500 g ai/ha, visual rating on 0 to 100 scale (0 no effect, 100 complete control)
# [14] = Postemergence, 31 g ai/ha, scale 0 to 100 (0 no effect, 100 complete control)
# [15] = Postemergence, 62 g ai/ha, scale 0 (no effect) to 100 (complete control)
# [16] = Postemergence, 125 g ai/ha, scale 0 to 100 (0 no effect, 100 complete control)
# [17] = Postemergence, 250 g ai/ha, scale 0 to 100 (0 no effect, 100 complete control)
structure (smiles),measurement,setting,value
CC(C)c1cccc(C2CNC(=O)C2C(=O)Nc2ccccc2F)c1 (stereo not drawn) [Compound 318],Oilseed Rape plant response rating,oilseed rape; [3],0
same,Oilseed Rape plant response rating,oilseed rape; [4],0
same,"Plant response rating, Oilseed Rape",oilseed rape; [5],5
same,"Plant response rating (scale of 0 to 100), Oilseed Rape","oilseed rape; Preemergence, 250 g ai/ha",5
same,Galium plant response rating,galium; [6],0
same,Galium plant response rating,galium; [7],0
same,"Plant response rating, Galium",galium,40
same,"Plant response rating (scale of 0 to 100), Galium",galium,100
same,Ragweed plant response rating,ragweed; [4],0
same,"Plant response rating, Ragweed",ragweed; [5],0
same,"Plant response rating, Wheat",wheat; [8],20
same,"Plant response rating, Wheat",wheat; [9],30
same,Corn plant response rating,corn [1]; [3],0
same,Corn plant response rating,corn [1]; [4],0
same,"Plant response rating, Corn",corn [1]; [5],10
same,"Plant response rating (scale of 0 to 100), Corn","corn [1]; Preemergence, 250 g ai/ha",60
same,Blackgrass plant response rating,blackgrass; [3],0
same,Blackgrass plant response rating,blackgrass; [4],0
same,"Plant response rating, Blackgrass",blackgrass; [5],30
same,"Plant response rating (scale of 0 to 100), Blackgrass","blackgrass; Preemergence, 250 g ai/ha",45
same,"Plant response rating, Foxtail, Giant",giant foxtail; [10],40
same,"Plant response rating, Foxtail, Giant",giant foxtail; [11],70
same,"Plant response rating, Foxtail, Giant",giant foxtail; [12],90
same,"Foxtail, Giant plant response rating",giant foxtail; [13],90
same,"Plant response rating, Corn",corn [2]; [8],20
same,"Plant response rating, Corn",corn [2]; [9],50
same,Johnsongrass plant response rating,johnsongrass; [3],0
same,Johnsongrass plant response rating,johnsongrass; [4],0
same,"Plant response rating, Johnsongrass",johnsongrass; [5],45
same,"Plant response rating (scale of 0 to 100), Johnsongrass","johnsongrass; Preemergence, 250 g ai/ha",60
same,"Plant response rating, Sedge, Umbrella","sedge, umbrella",0
same,"Foxtail, Giant plant response rating","foxtail, giant; [3]",10
same,"Foxtail, Giant plant response rating","foxtail, giant; [4]",70
same,"Plant response rating, Foxtail, Giant","foxtail, giant; [5]",75
same,"Plant response rating (scale of 0 to 100), Foxtail, Giant","foxtail, giant; Preemergence, 250 g ai/ha",90
CC(C)c1cccc(C2CNC(=O)C2C(=O)Nc2cccc(F)c2F)c1 (stereo not drawn) [Compound 319],Oilseed Rape plant response rating,oilseed rape; [3],0
same,Oilseed Rape plant response rating,oilseed rape; [4],5
same,"Plant response rating, Oilseed Rape",oilseed rape; [5],60
same,"Plant response rating (scale of 0 to 100), Oilseed Rape","oilseed rape; Preemergence, 250 g ai/ha",65
same,Galium plant response rating,galium; [6],95
same,Galium plant response rating,galium; [7],70
same,"Plant response rating, Galium",galium,80
same,"Plant response rating (scale of 0 to 100), Galium",galium,85
same,Ragweed plant response rating,ragweed; [4],15
same,"Plant response rating, Ragweed",ragweed; [5],40
same,"Plant response rating, Wheat",wheat; [8],20
same,"Plant response rating, Wheat",wheat; [9],50
same,Corn plant response rating,corn [1]; [3],0
same,Corn plant response rating,corn [1]; [4],30
same,"Plant response rating, Corn",corn [1]; [5],60
same,"Plant response rating (scale of 0 to 100), Corn","corn [1]; Preemergence, 250 g ai/ha",65
same,Blackgrass plant response rating,blackgrass; [3],40
same,Blackgrass plant response rating,blackgrass; [4],0
same,"Plant response rating, Blackgrass",blackgrass; [5],30
same,"Plant response rating (scale of 0 to 100), Blackgrass","blackgrass; Preemergence, 250 g ai/ha",80
same,"Plant response rating, Foxtail, Giant",giant foxtail; [10],50
same,"Plant response rating, Foxtail, Giant",giant foxtail; [11],90
same,"Plant response rating, Foxtail, Giant",giant foxtail; [12],90
same,"Foxtail, Giant plant response rating",giant foxtail; [13],90
same,"Plant response rating, Corn",corn [2]; [8],40
same,"Plant response rating, Corn",corn [2]; [9],80
same,Johnsongrass plant response rating,johnsongrass; [3],40
same,Johnsongrass plant response rating,johnsongrass; [4],55
same,"Plant response rating, Johnsongrass",johnsongrass; [5],65
same,"Plant response rating (scale of 0 to 100), Johnsongrass","johnsongrass; Preemergence, 250 g ai/ha",75
same,"Plant response rating, Sedge, Umbrella","sedge, umbrella",0
same,"Foxtail, Giant plant response rating","foxtail, giant; [3]",70
same,"Foxtail, Giant plant response rating","foxtail, giant; [4]",85
same,"Plant response rating, Foxtail, Giant","foxtail, giant; [5]",95
same,"Plant response rating (scale of 0 to 100), Foxtail, Giant","foxtail, giant; Preemergence, 250 g ai/ha",95
O=C1NCC(c2cccc(OC(F)F)c2)C1C(=O)Nc1ccccc1F (stereo not drawn) [Compound 323],"Plant response rating, Oilseed Rape",oilseed rape; [14],0
same,"Plant response rating, Oilseed Rape",oilseed rape; [15],0
same,"Plant response rating, Oilseed Rape",oilseed rape; [16],0
same,"Plant response rating, Oilseed Rape",oilseed rape; [17],0
same,Oilseed Rape plant response rating,oilseed rape; [3],0
same,Oilseed Rape plant response rating,oilseed rape; [4],10
same,"Plant response rating, Oilseed Rape",oilseed rape; [5],70
same,"Plant response rating (scale of 0 to 100), Oilseed Rape","oilseed rape; Preemergence, 250 g ai/ha",85
same,Galium plant response rating,galium; [6],0
same,Galium plant response rating,galium; [7],0
same,"Plant response rating, Galium",galium,85
same,"Plant response rating (scale of 0 to 100), Galium",galium,85
same,"Plant response rating, Ragweed",ragweed; [14],0
same,"Plant response rating, Ragweed",ragweed; [15],0
same,"Plant response rating, Ragweed",ragweed; [16],15
same,"Plant response rating, Ragweed",ragweed; [17],20
same,Ragweed plant response rating,ragweed; [4],10
same,"Plant response rating, Ragweed",ragweed; [5],40
same,"Plant response rating, Wheat",wheat; [8],40
same,"Plant response rating, Wheat",wheat; [9],80
same,"Plant response rating, Corn",corn [1]; [14],0
same,"Plant response rating, Corn",corn [1]; [15],0
same,"Plant response rating, Corn",corn [1]; [16],5
same,"Plant response rating, Corn",corn [1]; [17],10
same,Corn plant response rating,corn [1]; [3],0
same,Corn plant response rating,corn [1]; [4],0
same,"Plant response rating, Corn",corn [1]; [5],10
same,"Plant response rating (scale of 0 to 100), Corn","corn [1]; Preemergence, 250 g ai/ha",75
same,"Plant response rating, Blackgrass",blackgrass; [14],0
same,"Plant response rating, Blackgrass",blackgrass; [15],0
same,"Plant response rating, Blackgrass",blackgrass; [16],0
same,"Plant response rating, Blackgrass",blackgrass; [17],15
same,Blackgrass plant response rating,blackgrass; [3],0
same,Blackgrass plant response rating,blackgrass; [4],0
same,"Plant response rating, Blackgrass",blackgrass; [5],45
same,"Plant response rating (scale of 0 to 100), Blackgrass","blackgrass; Preemergence, 250 g ai/ha",85
same,"Plant response rating, Foxtail, Giant",giant foxtail; [10],90
same,"Plant response rating, Foxtail, Giant",giant foxtail; [11],90
same,"Plant response rating, Foxtail, Giant",giant foxtail; [12],90
same,"Foxtail, Giant plant response rating",giant foxtail; [13],90
same,"Plant response rating, Corn",corn [2]; [8],70
same,"Plant response rating, Corn",corn [2]; [9],90
same,"Plant response rating, Johnsongrass",johnsongrass; [14],0
same,"Plant response rating, Johnsongrass",johnsongrass; [15],0
same,"Plant response rating, Johnsongrass",johnsongrass; [16],0
same,"Plant response rating, Johnsongrass",johnsongrass; [17],10
same,Johnsongrass plant response rating,johnsongrass; [3],0
same,Johnsongrass plant response rating,johnsongrass; [4],0
same,"Plant response rating, Johnsongrass",johnsongrass; [5],45
same,"Plant response rating (scale of 0 to 100), Johnsongrass","johnsongrass; Preemergence, 250 g ai/ha",60
same,"Plant response rating, Sedge, Umbrella","sedge, umbrella",0
same,"Plant response rating, Foxtail, Giant","foxtail, giant; [14]",0
same,"Plant response rating, Foxtail, Giant","foxtail, giant; [15]",0
same,"Plant response rating, Foxtail, Giant","foxtail, giant; [16]",35
same,"Plant response rating, Foxtail, Giant","foxtail, giant; [17]",70
same,"Foxtail, Giant plant response rating","foxtail, giant; [3]",90
same,"Foxtail, Giant plant response rating","foxtail, giant; [4]",95
same,"Plant response rating, Foxtail, Giant","foxtail, giant; [5]",95
same,"Plant response rating (scale of 0 to 100), Foxtail, Giant","foxtail, giant; Preemergence, 250 g ai/ha",98
